Where “and” joins values, the source holds several entries; their conditions need not be identical. Equal values may be shown once.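 Compound exposure: 48 hours, 5 concentrations, 96-well plates. GI50 is the concentration that inhibits growth by half. TGI: concentration producing complete growth inhibition.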
How the values were obtained:
Experiment in all cases: growth of human tumour cells (NCI), 48 h
SF-295 CNS = tested on: SF-295 CNS
LOX IMVI melanoma = tested on: LOX IMVI melanoma
TK-10 renal = tested on: TK-10 renal
CCRF-CEM leukemia = tested on: CCRF-CEM leukemia
EKVX NSCLC = tested on: EKVX NSCLC
MDA-MB-231 breast = tested on: MDA-MB-231 breast
NCI-H522 lung = tested on: NCI-H522 lung
SK-MEL-2 melanoma = tested on: SK-MEL-2 melanoma
OVCAR-8 ovarian = tested on: OVCAR-8 ovarian
OVCAR-3 ovarian = tested on: OVCAR-3 ovarian

Compound	GI50 (SF-295 CNS)	TGI (SF-295 CNS)	GI50 (LOX IMVI melanoma)	TGI (LOX IMVI melanoma)	GI50 (TK-10 renal)	TGI (TK-10 renal)	GI50 (CCRF-CEM leukemia)	GI50 (EKVX NSCLC)	TGI (EKVX NSCLC)	GI50 (MDA-MB-231 breast)	TGI (MDA-MB-231 breast)	GI50 (NCI-H522 lung)	TGI (NCI-H522 lung)	GI50 (SK-MEL-2 melanoma)	TGI (SK-MEL-2 melanoma)	GI50 (OVCAR-8 ovarian)	TGI (OVCAR-8 ovarian)	GI50 (OVCAR-3 ovarian)	TGI (OVCAR-3 ovarian)	TGI (CCRF-CEM leukemia)
O=C1C(=O)c2c(nc3ccc(C(F)(F)F)cn23)-c2ccccc21	0.436 µM	0.855 µM	0.173 µM	0.354 µM	0.738 µM	1.24 µM	0.39 µM	0.178 µM	0.396 µM	0.215 µM	0.74 µM	0.206 µM	0.549 µM	0.209 µM	0.434 µM	0.253 µM	0.651 µM	0.179 µM	0.443 µM	
Cn1c(I)c(C#C[Si](C)(C)C)c(=O)n(C(=O)c2ccccc2)c1=O	21.5 µM	48.7 µM	2.79 µM	8.26 µM	3.81 µM	14 µM	0.432 µM	6.06 µM	21.2 µM	5.22 µM	11.8 µM	4.19 µM	8.99 µM	12.8 µM	26 µM	12.4 µM	26.1 µM	1.79 µM	3.29 µM	
COC1=CC(c2ccc[nH]2)=N/C1=C\c1[nH]c(C)c(C(=O)CCCCCCCCC(=O)O[C@H]2CC[C@H]3C4CCc5cc(O)ccc5C4CC[C@]23C)c1C (stereo partly specified)	1.09 µM	> 43.8 µM	0.0764 µM	0.267 µM	0.861 µM	> 50 µM	0.117 µM	0.461 µM	> 50 µM	0.148 µM	7.06 µM	0.277 µM	> 33.9 µM	0.247 µM	1.95 µM	0.378 µM	> 50 µM	0.493 µM	15 µM	> 50 µM
Cc1cccc(N2C(=O)/C(=C/C(Cl)=C/c3ccc([N+](=O)[O-])cc3)SC2=S)c1C	2.28 µM	5.25 µM	1.42 µM	3.25 µM	3.17 µM	> 100 µM	0.741 µM	2.73 µM	> 100 µM	2.2 µM	5.52 µM	2.18 µM	5.58 µM	3.85 µM	> 100 µM	1.08 µM	> 100 µM	1.83 µM	3.87 µM	> 89.5 µM
Nc1cc2c3c(cccc3c1)C(=O)N(CCN1CCCC1)C2=O	2.59 µM	11.2 µM	2.25 µM	13.4 µM	5.49 µM	33.7 µM	3.88 µM	3.69 µM	54.2 µM	4.95 µM	40.7 µM	3.46 µM	19.4 µM	4.96 µM	19.2 µM	3.69 µM	> 100 µM	5.26 µM	29.3 µM	> 35.6 µM
COC(=O)C(C(=O)C(=O)Nc1c(C)cccc1C(C)(C)C)c1nc2ccc(Cl)cc2[nH]c1=O (stereo unspecified)		> 100 µM		> 100 µM		> 100 µM			> 100 µM		> 100 µM		> 100 µM		> 100 µM		> 100 µM		> 100 µM	> 100 µM
[N-]=[N+]=CC(=O)CCC(N)C(=O)O (stereo unspecified)		> 250 µM	0.793 µM	167 µM	35.6 µM	244 µM	5.82 µM	3.47 µM	> 141 µM		> 250 µM	0.963 µM	> 149 µM	24.6 µM	245 µM	7.03 µM	> 218 µM	1.45 µM	> 244 µM	54.6 µM and 157 µM
COc1ccc2[nH]c(C(=O)N3CCN(C(=O)OCc4ccc5c(Cl)cc(Cl)c(O)c5n4)CC3)cc2c1	3.91 µM	13.8 µM	1.43 µM	2.81 µM	1.42 µM	2.72 µM	0.275 µM	1.61 µM	2.97 µM	1.34 µM	2.87 µM	0.828 µM	2.35 µM	1.61 µM	3.06 µM	1.01 µM	2.42 µM	0.504 µM	1.83 µM	1.67 µM
Cc1ccc(/C(=N/Nc2ccc([N+](=O)[O-])cc2)Sc2cc(Cl)c(C)cc2S(N)(=O)=O)cc1	1.75 µM	3.39 µM	1.49 µM	3.45 µM	1.61 µM	3.38 µM	2.11 µM	3.14 µM	9.12 µM	0.8 µM	2.24 µM	4.96 µM	> 28.2 µM	4.9 µM	20 µM	7.38 µM	> 100 µM	1.22 µM	2.61 µM	4.58 µM

— PubChem BioAssay (NCI)
